In KR20210050472A, “에독사반염 및 이를 포함하는 약제학적 조성물” (priority 2019, dated 2021):
Like-named read-outs stand apart in the source and are kept apart here.

Columns and labels:
[1] = Heat stability test (Test Example 1), crystal form retention at 40±2℃, 75±5% RH; type: physicochemical; conditions: for stability of crystal form: 40℃/75% RH
[2] = Stability test in pH solutions (Test Example 2), related substances by HPLC; type: physicochemical; conditions: for degraded: read-out: amount of related substances generated
[3] = 40℃, 75% RH, from week 8 of the stability test

## CN1CCc2nc(C(=O)N[C@@H]3C[C@@H](C(=O)N(C)C)CC[C@@H]3NC(=O)C(=O)Nc3ccc(Cl)cn3)sc2C1 [말산염 결정형, 에독사반 말산염 결정형, reference compound]
[1]; 40℃, 75% RH, week 24
  change in appearance and powder X-ray diffraction values: 성상 변화 및 분말 X선 회절 값이 변화
[1]; 8 weeks, 말산염
  stability of crystal form: 결정형 유지
[1]; 24 weeks, 말산염
  stability of crystal form: 결정형 변화

## CN1CCc2nc(C(=O)N[C@@H]3C[C@@H](C(=O)N(C)C)CC[C@@H]3NC(=O)C(=O)Nc3ccc(Cl)cn3)sc2C1 [벤젠술폰산염 결정형 Ⅰ형, 에독사반 벤젠술폰산염 결정형 Ⅰ형]
[1]; 8 weeks, 벤젠술폰산염
  stability of crystal form: 결정형 유지
[1]; 16 weeks
  stability of crystal form: 결정형 유지
[1]; 24 weeks, 벤젠술폰산염
  stability of crystal form: 결정형 유지

## CN1CCc2nc(C(=O)N[C@@H]3C[C@@H](C(=O)N(C)C)CC[C@@H]3NC(=O)C(=O)Nc3ccc(Cl)cn3)sc2C1 [벤젠술폰산염 결정형 Ⅱ형, 에독사반 벤젠술폰산염 결정형 Ⅱ형, reference compound]
[1]; [3]
  change of crystal form: 일부가 결정형 Ⅰ으로 변화
  change of endothermic point by differential scanning calorimetry: 결정형 Ⅰ형의 흡열점이 관찰
[1]; 8 weeks, 벤젠술폰산염
  stability of crystal form: 일부 결정형 Ⅰ형으로 변화

## CN1CCc2nc(C(=O)N[C@@H]3C[C@@H](C(=O)N(C)C)CC[C@@H]3NC(=O)C(=O)Nc3ccc(Cl)cn3)sc2C1 [에디실산염 수화물 결정형, 에독사반 에디실산염 수화물 결정형]
[1]; 40℃, 75% RH, over 24 weeks
  change in crystal form and appearance: 결정형의 변화 및 성상의 변화가 발생하지 않아
[1]; 8 weeks, 에디실산염 수화물
  stability of crystal form: 결정형 유지
[1]; 16 weeks
  stability of crystal form: 결정형 유지
[1]; 24 weeks, 에디실산염 수화물
  stability of crystal form: 결정형 유지
[2]; distilled water (DW)
  degraded: 0.18%
[2]; pH 1.2
  degraded: 19.3%
[2]; pH 7.8
  degraded: 11.4%
[2]; pH 7.8 solution
  total related substances generated, reduction versus tosylate hydrate: ~4.5%
[2]; solutions of DW, pH 1.2 and pH 7.8
  total related substances generated, compared with tosylate hydrate: 총유연물질이 적게 발생
